Values quoted from earlier work in patent US5905084A, “5-HTIF -agonists effective in treating migraine” (priority 1997, dated 1999).

Legend:
[1] = tested on: neurogenic inflammation; settings: Neurology, 43(suppl. 3), S16-S20 (1993)
[2] = tested on: exploratory behavior in arthritic animals; settings: Larsen and Arnt (1985)

SMILES | neurogenic inflammation blocked [1] | exploratory behavior [2]
CNS(=O)(=O)Cc1ccc2[nH]cc(CCN(C)C)c2c1.O=C(O)CCC(=O)O [Compound I, 3-[2-(dimethylamino)ethyl]-N-methyl-1H-indole-5-methanesulfonamide butane-1,4-dioate (1:1)] | blocked | 
CN(C)CCCC1(c2ccc(F)cc2)OCc2cc(C#N)ccc21 (centres unmarked) [citalopram] |  | improve exploratory behavior
